Experimental data as given in PMC4052943 (BioMed Research International, 2014).
Where two headings read alike, the source gives them in different places.

Key:
[1] = test system: A549 cells; assay: MTT cell proliferation assay; type: cell-based; conditions: Homo sapiens; A549; 50 μg/mL; 48 h; read-out: inhibition of cells (antiproliferative activity, MTT)
Method: (§1) Inhibition of cell proliferation by PC and EA was measured with the MTT assay. Human lung cancer A549 and H1299 cells were obtained from ATCC (Manassas, VA, USA) and maintained in DMEM supplemented with 10% fetal calf serum (FCS), 1% penicillin/streptomycin. Cells were plated in 96-well culture plates (5 × 10^3 cells/well). After 24 h incubation, cells were treated with vehicle alone (0.1% DMSO) and PC and EA (12.5–200 μg/mL) extracts for 48 h. Then, the culture medium was replaced by 100 μL of fresh medium containing 0.5 mg/mL MTT, and the plates were incubated for 2 h at 37°C. The medium was then removed and was replaced by 200 μL of DMSO to solubilize the converted purple dye. The absorbance was measured with a spectrophotometer microplate reader at a wavelength of 570 nm.

[2] = test system: H1299 cells; assay: MTT cell proliferation assay; type: cell-based; conditions: Homo sapiens, NCI-H1299; H1299; 50 μg/mL; 48 h; read-out: inhibition of cells (antiproliferative activity, MTT)
Method: as §1

[3] = test system: Salmonella typhimurium TA97a; assay: Ames antimutagenicity assay (preincubation); conditions: for inhibition at 50 µM / inhibition at 100 µM / inhibition at 250 µM / inhibition at 500 µM: Salmonella enterica, TYPHIMURIUM; for Number of His+ revertants colonies/plate: TA 97a;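 for all read-outs here: compound and mutagen preincubated together 30 min at 37 °C before adding bacteria, then plated on minimal glucose agar for 48 h and His+ revertant colonies counted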
[4] = test system: Salmonella typhimurium TA100; assay: Ames antimutagenicity assay (preincubation); conditions: Salmonella enterica, TYPHIMURIUM;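 note: compound and mutagen preincubated together 30 min at 37°C before bacteria added, then plates incubated 48 h at 37°C, inhibition relative to mutagen-alone revertants after subtracting the negative control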
Method: In the preincubation experiment, test compounds and mutagen, each having a volume of 0.1 mL of varying concentrations, were preincubated at 37°C for 30 min and then 0.1 mL of 1 × 10^7 CFU/mL density of the bacterial culture was added, followed by the addition of 2.5 mL of top agar at 45°C (containing 0.5% NaCl and 0.6% agar) supplemented with 0.5 mM histidine-biotin. […] The combined solutions were vortexed and poured onto minimal glucose plates (40% glucose solution and Vogel Bonner medium). The plates were incubated at 37°C for 48 h and the numbers of histidine-independent revertants colonies were scored.
Survival of the bacteria was routinely monitored for each experiment. Parallel controls were run with compounds alone at all concentrations to test the possible toxicity. The concentrations of the test samples for investigating the antimutagenicity were 50, 100, 200, and 500 μM. […] All the test samples and mutagens were dissolved in DMSO (final conc., 0.01%). […] Plates were set up in triplicate for each concentration and the entire experiment was repeated three times. Inhibition of mutagenicity was expressed as percentage decrease of reverse mutation and calculated as (1) Percent inhibition=[(a−b)/(a−c)]×100, where a = number of histidine revertants induced by mutagen, b = number of histidine revertants induced by mutagen in the presence of test compound, and c = number of revertants induced in negative control.

O=c1oc2c(O)c(O)cc3c(=O)oc4c(O)c(O)cc1c4c23 [Ellagic acid, ellagic acid]
inhibition at 50 µg/mL [1]: 39% | inhibition at 50 µg/mL [2]: 34% | inhibition at 50 µM ([3]; read-out: % inhibition of mutagenicity, TA 97a, 50 μM + 2AF, S9): 12.5% | inhibition at 50 µM ([3]; read-out: % inhibition of mutagenicity, TA 97a, 50 μM + BP, S9): 14.1% | inhibition at 50 µM ([3]; read-out: % inhibition of mutagenicity, TA 97a, 50 μM + MMS, no S9): 9% | inhibition at 50 µM ([3]; read-out: % inhibition of mutagenicity, TA 97a, 50 μM + NaN3, no S9): 21.1% | inhibition at 100 µM ([3]; read-out: % inhibition of mutagenicity, TA 97a, 100 μM + 2AF, S9): 22.6% | inhibition at 100 µM ([3]; read-out: % inhibition of mutagenicity, TA 97a, 100 μM + BP, S9): 36% | inhibition at 100 µM ([3]; read-out: % inhibition of mutagenicity, TA 97a, 100 μM + MMS, no S9): 25% | inhibition at 100 µM ([3]; read-out: % inhibition of mutagenicity, TA 97a, 100 μM + NaN3, no S9): 39.4% | inhibition at 250 µM ([3]; read-out: % inhibition of mutagenicity, TA 97a, 250 μM + BP, S9): 71.8% | inhibition at 250 µM ([3]; read-out: % inhibition of mutagenicity, TA 97a, 250 μM + MMS, no S9): 42.2% | inhibition at 250 µM ([3]; read-out: % inhibition of mutagenicity, TA 97a, 250 μM + NaN3, no S9): 53.6% | inhibition at 500 µM ([3]; read-out: % inhibition of mutagenicity, TA 97a, 500 μM + 2AF, S9): 81.7% | inhibition at 500 µM ([3]; read-out: % inhibition of mutagenicity, TA 97a, 500 μM + BP, S9): 83.5% | inhibition at 500 µM ([3]; read-out: % inhibition of mutagenicity, TA 97a, 500 μM + MMS, no S9): 66.5% | inhibition at 500 µM ([3]; read-out: % inhibition of mutagenicity, TA 97a, 500 μM + NaN3, no S9): 72.1% | Number of His+ revertants colonies/plate ([3]; 50 μM + 2AF, S9): 312.3 ± 20.5 colonies/plate | Number of His+ revertants colonies/plate ([3]; 50 μM + BP, S9): 652.7 ± 35.3 colonies/plate | Number of His+ revertants colonies/plate ([3]; 50 μM + MMS, no S9): 426.3 ± 11.6 colonies/plate | Number of His+ revertants colonies/plate ([3]; 50 μM + NaN3, no S9): 242.0 ± 11.8 colonies/plate | Number of His+ revertants colonies/plate ([3]; 100 μM + 2AF, S9): 296.7 ± 13.4 colonies/plate | Number of His+ revertants colonies/plate ([3]; 100 μM + BP, S9): 529.0 ± 28.6 colonies/plate | Number of His+ revertants colonies/plate ([3]; 100 μM + MMS, no S9): 378.0 ± 10.8 colonies/plate | Number of His+ revertants colonies/plate ([3]; 100 μM + NaN3, no S9): 219.3 ± 7.1 colonies/plate | Number of His+ revertants colonies/plate ([3]; 250 μM + BP, S9): 333.3 ± 22.2 colonies/plate | Number of His+ revertants colonies/plate ([3]; 250 μM + MMS, no S9): 321.3 ± 10.8 colonies/plate | Number of His+ revertants colonies/plate ([3]; 250 μM + NaN3, no S9): 196.7 ± 8.2 colonies/plate | Number of His+ revertants colonies/plate ([3]; 500 μM + 2AF, S9): 212.0 ± 10.4 colonies/plate | Number of His+ revertants colonies/plate ([3]; 500 μM + BP, S9): 275.3 ± 17.5 colonies/plate | Number of His+ revertants colonies/plate ([3]; 500 μM + MMS, no S9): 239.7 ± 10.8 colonies/plate | Number of His+ revertants colonies/plate ([3]; 500 μM + NaN3, no S9): 168.0 ± 7.0 colonies/plate | inhibition at 50 µM ([4]; read-out: % inhibition of mutagenicity, TA 100, 50 μM + 2AF, S9): 22.5% | inhibition at 50 µM ([4]; read-out: % inhibition of mutagenicity, TA 100, 50 μM + BP, S9): 21.8% | inhibition at 50 µM ([4]; read-out: % inhibition of mutagenicity, TA 100, 50 μM + MMS, no S9): 8% | inhibition at 50 µM ([4]; read-out: % inhibition of mutagenicity, TA 100, 50 μM + NaN3, no S9): 11.4% | inhibition at 100 µM ([4]; read-out: % inhibition of mutagenicity, TA 100, 100 μM + 2AF, S9): 46.1% | inhibition at 100 µM ([4]; read-out: % inhibition of mutagenicity, TA 100, 100 μM + BP, S9): 42.8% | inhibition at 100 µM ([4]; read-out: % inhibition of mutagenicity, TA 100, 100 μM + MMS, no S9): 26.4% | inhibition at 100 µM ([4]; read-out: % inhibition of mutagenicity, TA 100, 100 μM + NaN3, no S9): 25.6% | inhibition at 250 µM ([4]; read-out: % inhibition of mutagenicity, TA 100, 250 μM + BP, S9): 70% | inhibition at 250 µM ([4]; read-out: % inhibition of mutagenicity, TA 100, 250 μM + MMS, no S9): 45.1% | inhibition at 250 µM ([4]; read-out: % inhibition of mutagenicity, TA 100, 250 μM + NaN3, no S9): 46.4% | inhibition at 500 µM ([4]; read-out: % inhibition of mutagenicity, TA 100, 500 μM + 2AF, S9): 83.8% | inhibition at 500 µM ([4]; read-out: % inhibition of mutagenicity, TA 100, 500 μM + BP, S9): 88.9% | inhibition at 500 µM ([4]; read-out: % inhibition of mutagenicity, TA 100, 500 μM + MMS, no S9): 65.3% | inhibition at 500 µM ([4]; read-out: % inhibition of mutagenicity, TA 100, 500 μM + NaN3, no S9): 65.9%
